Data published in patent US20200345728A1, “COMPOSITIONS AND METHODS FOR TREATMENT OF ATHEROSCLEROSIS” (NovMetaPharma Co., Ltd., priority 2019, published 2020).

Tests used:
[1] = test system: mouse spleen cells (B-cell activation); assay: B-cell activation in mouse spleen cells; type: cell-based; settings: alone, 4 days; LPS 1 μg/ml; Cyclo-Z 50 μM CHP/10 μM Zn
Experimental: Mouse spleen cells were isolated from wild type C57BL/6J mice (The Jackson Laboratory; strain 000632) and plated under standard cell culture conditions in the presence or absence of Cyclo-Z (50 μM CHP/10 μM zinc) and/or LPS for 4 days. Nodules indicating increased B-cell activation and proliferation were visualized by microscopy.

VSMCs = assay: Cell viability in VSMCs analyzed by FACS (viability stain); type: cell-based; settings: 45 minutes
Experimental: (§1) VSMC were seeded (1.25×10^5 cells/well in 12-well plates) and incubated at 37° C. for 24 hr. Cultures were then subjected to various treatments (as shown in Table 1) to induce ROS for 45 minutes (at 37° C.) along with 10 μM CM-H2CFDA (Molecular Probes, Inc., Eugene, Oreg.). CM-H2DCFDA is a chloromethyl derivative of H2DCFDA, useful as an indicator for ROS in cells. Subsequent oxidation of CM-H2CFDA yields a fluorescent adduct that is trapped inside the cell. At the end of treatment period cells were trypsinized, washed, and analyzed by FACS for ROS (CM-H2CFDA fluorescence) and viability using a viability stain (BD Horizon Fixable Viability Stain 660; BD Biosciences, San Jose, Calif.).

ROS in VSMCs = assay: ROS generation in VSMCs analyzed by FACS (CM-H2CFDA fluorescence); type: cell-based; settings: 45 minutes
Experimental: as §1

[2] = test system: RAW264.7 macrophage cells; assay: FACS analysis of cell viability in M2 activated RAW264.7 cultures; type: cell-based
Experimental: RAW264.7 macrophage cells, untreated and treated with IL-4 (20 ng/ml), were stained with 1:1000 diluted viability stain (BD Horizon Fixable Viability Stain 660). Cells were analyzed by FACS and gated for unstained (viable) and stained (non-viable) populations.

[3] = test system: RAW264.7 macrophage cells; assay: Charcoal phagocytosis assay in activated RAW264.7 macrophage cells; type: cell-based; settings: during M1 activation (1 μg/ml LPS/20 ng/ml IFN); 50 μM CHP, 10 μM Zn
Experimental: RAW264.7 macrophage cells (ATCC® TIB-71) were activated to either inflammatory M1 macrophage phenotype (with 1 μg/ml LPS/20 ng/ml IFN) or to the anti-inflammatory M2 phenotype (with 20 ng/ml IL-4) in the presence or absence of Cyclo-Z (50 μM CHP/10 μM Zn) treatment. Charcoal dust was added to the culture as a marker of M1 phagocytosis activity.
To compare between CHP and Zinc effects in Cyclo-Z on charcoal binding activities, we determined the phagocytosis activity of CHP (50 μM CHP) or Zinc (10 μM Zn) alone or Cyclo-Z during activation of M1 macrophages (with 1 μg/ml LPS/20 ng/ml IFN).

[4] = DPPH colorimetric anti-oxidant assay; type: biochemical; settings: incubation with DPPH, various concentrations
Source text: In this colorimetric assay, DPPH functions as a free radical that can be inactivated by anti-oxidant compounds resulting in loss of color. […] Zinc was not tested alone since it was not completely soluble in the organic solvents needed for the assay. Ascorbic Acid functions as an antioxidant positive control.

[5] = added with IL-4 (20 ng/ml), M2 activated

Compound: lipopolysaccharide [LPS]
- B-cell activation/proliferation (nodules) [1]: induced some B-cell activation/proliferation
- Viability Population (VSMCs; LPS alone): 75.81
- ROS Population (ROS in VSMCs; LPS alone): 0.09

Compound: IL-4: Interleukin-4, cytokine used to activate macrophages to M2 phenotype
- Percent Non-Viability ([2]; IL-4 (20 ng/ml) alone): 17.63%

Compound: [Cl-].[Cl-].[Zn+2] [Zinc, ZnCl2]
- Percent Non-Viability [2, 5]: 33.49%
- Percent Viability (Stained) [2, 5]: 58.47%
- charcoal uptake (phagocytosis activity) [3]: somewhat effective

Compound: OC[C@H]1OC(O)[C@H](O)[C@@H](O)[C@@H]1O (stereo partly shown) [HG]
- Viability Population (VSMCs; HG (50 mM) alone): 61.63
- Viability Population (VSMCs; HG (100 mM) alone): 63.9
- ROS Population (ROS in VSMCs; HG (50 mM) alone): 0.04
- ROS Population (ROS in VSMCs; HG (100 mM) alone): 0.04

Compound: O=C1N[C@@H](Cc2cnc[nH]2)C(=O)N2CCC[C@@H]12 [CHP, cyclo-Hispro]
- Percent Non-Viability [2, 5]: 14.13%
- Percent Viability (Stained) [2, 5]: 73.63%
- anti-oxidant activity (DPPH) [4]: concentration dependent anti-oxidant activity
- charcoal uptake (phagocytosis activity) [3]: did not show any effects

Compound: OO [H2O2, hydrogen peroxide]
- Viability Population (VSMCs; H2O2 (5 μL) alone): 22.31
- Viability Population (VSMCs; H2O2 (10 μL) alone): 7.33
- ROS Population (ROS in VSMCs; H2O2 (5 μL) alone): 81.33
- ROS Population (ROS in VSMCs; H2O2 (10 μL) alone): 50.63
